Source: the supplement of paper PMC11208160

Test: recombinant barcode read abundance after kanamycin selection (control-corrected) (log10(CPM+1)); higher = more efficient recombination; sequences stand for … in AGTGCAGAGAAAATCGGCCAGTTTTCTCTGCCTGCAGTCCGCATGCCGT…AGATTTATGCAGCGGACTGCCTTTCTCCCAAAGTGATAAACCGGACAGTATCATGGACCGGTTTTCCCGGTAATCCGTATTTGCAAGGTTGGTTTCACT; site = the 11-nt target
Outline: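 Recombination efficiency draws on barcodes counted at recombinant junctions in a pooled E. coli screen of targets paired with IS621 bridge RNA target-binding loops. The counts were converted to counts per million, averaged and corrected against the chloramphenicol/ampicillin LB agar control, then reported as log10(CPM+1). Selection plates held chloramphenicol/ampicillin/kanamycin with 0.1 mM IPTG, with two replicates per condition.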
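Further: IS621 recombinase and bridge RNA in Escherichia coli cells.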

| Sequence | recombinant barcode read abundance (log10) |
| --- | --- |
| TAGTGTACTTGGGTTCTAACCTGTTGCCT (site TAGTGTACTAG) | 0.579 |
| CTACTTGCTTGGGTTCTAACCTGTTGCAA (site CTATTTGCTTT) | 0.592 |
| ACCCAAGCTTGGGTTCTAACCTGTTGCCT (site ACCCAACCTAG) | 0.199 |
| GCGTATCCTTGGGTTCTAACCTGTTGCCT (site GCGTATCCTAG) | 0.93 |
| TGGCCGACTTGGGTTCTAACCTGTTGCAC (site TGGCCGACTGT) | 1.65 |
| AAACTAACTTGGGTTCTAACCTGTTGCCT (site ATACTAACTAG) | 0.073 |
| CGGGCCTCTTGGGTTCTAACCTGTTGCTC (site CGGGCCTCTAA) | 0.752 |
| CCGAAGACTTGGGTTCTAACCTGTTGCCT (site TCGAAGACTTG) | 0.492 |
| ATGGTGTCTTGGGTTCTAACCTGTTGCCT (site ATGGTGCCTAG) | 0.768 |
| TAGATAACTTGGGTTCTAACCTGTTGCTG (site TAGATAACTCA) | 1.02 |
| TCAGAGCCTTGGGTTCTAACCTGTTGCTG (site TCACAGCCTCA) | 0.0728 |
| ACTTCAACTTGGGTTCTAACCTGTTGCCT (site ACATCAACTAG) | 0.0253 |
| ACTGATGCTTGGGTTCTAACCTGTTGCCT (site ACTGATGCTAG) | 2.09 |
| CCGGTATCTTGGGTTCTAACCTGTTGCCT (site CCGTTATCTAG) | 0.0727 |
| CTAGCTCCTTGGGTTCTAACCTGTTGCAG (site CTAGCGGCTCT) | 0.0535 |
| GTATCTCCTTGGGTTCTAACCTGTTGCGG (site GTCTCACCTCC) | 0.0668 |
| TCACATGCTTGGGTTCTAACCTGTTGCCT (site TCACTTGCTAG) | 0.119 |
| GAGCTACCTTGGGTTCTAACCTGTTGCCA (site GAGCTACCTAG) | 0.796 |
| CCATGGACTTGGGTTCTAACCTGTTGCCT (site CCAGGGACTAG) | 0.0382 |
| GCCGCTCCTTGGGTTCTAACCTGTTGCCT (site GCCGCTCCTAG) | 0.163 |
| CCGGTGCCTTGGGTTCTAACCTGTTGCCT (site CGGGTGCCTAG) | 1.03 |
| TCCGCTTCTTGGGTTCTAACCTGTTGCTT (site TCCGCTTCTAA) | 0.0659 |

| Sequence | recombinant barcode read abundance (log10) |
| --- | --- |
| TCAAGACCTTGGGTTCTAACCTGTTGCCT (site TCAAGACCTCG) | 0.0935 |
| GGACGCTCTTGGGTTCTAACCTGTTGCCT (site GGTCGCTCTAG) | 0.113 |
| AGTGAAGCTTGGGTTCTAACCTGTTGCAC (site AGTGAAGCTGT) | 2.33 |
| AAGCGAACTTGGGTTCTAACCTGTTGCCT (site AAGCAAACTAG) | 0.274 |
| TAGTATCCTTGGGTTCTAACCTGTTGCTA (site TAGTATCCTTA) | 0.714 |
| CGGCCACCTTGGGTTCTAACCTGTTGCCT (site CGGCCACCTAG) | 2.02 |
| GAGATCCCTTGGGTTCTAACCTGTTGCCT (site GAGATCCCTAG) | 2.03 |
| ACGATTCCTTGGGTTCTAACCTGTTGCTT (site ACGATTCCTAA) | 0.0242 |
| TATTGGCCTTGGGTTCTAACCTGTTGCGT (site ACGACTACTCG) | 0.0203 |
| CATAACCCTTGGGTTCTAACCTGTTGCAT (site ATCGGATCTCG) | 0.0317 |
| ACTTGCCCTTGGGTTCTAACCTGTTGCCT (site AATTGCCCTAG) | 0.0465 |
| AAGCCCTCTTGGGTTCTAACCTGTTGCTT (site AAGTCCTCTAA) | 0.0167 |
| TCTGATTCTTGGGTTCTAACCTGTTGCGT (site TCTAATTCTAC) | 0.352 |
| CTATGGACTTGGGTTCTAACCTGTTGCAG (site CTATGGACTTT) | 0.0535 |
| TATGTGGCTTGGGTTCTAACCTGTTGCCT (site TATGGGGCTAG) | 0.0271 |
| CCGTCTACTTGGGTTCTAACCTGTTGCCT (site CTGTCTACTAG) | 0.082 |
| CATCCGGCTTGGGTTCTAACCTGTTGCCT (site CATCCGGCTAG) | 0.434 |
| GTCGCGCCTTGGGTTCTAACCTGTTGCCT (site GTCGCGACTAG) | 0.221 |
| CTACGCTCTTGGGTTCTAACCTGTTGCAC (site CTACGATCTGT) | 0.145 |
| ATGCTATCTTGGGTTCTAACCTGTTGCAG (site ATGCTATCTCT) | 0.678 |
| GAAGTCACTTGGGTTCTAACCTGTTGCCT (site GAAGTCACTAG) | 1.99 |
| CGACCCTCTTGGGTTCTAACCTGTTGCCT (site CGACCCTCTAG) | 1.74 |

| Sequence | recombinant barcode read abundance (log10) |
| --- | --- |
| ACTTCTACTTGGGTTCTAACCTGTTGCCG (site ACTTCTACTCG) | 0.195 |
| TCGAGTTCTTGGGTTCTAACCTGTTGCCT (site TCGAGTACTAG) | 0.0829 |
| TCCTAACCTTGGGTTCTAACCTGTTGCCT (site TCCTAATCTAT) | 0.0117 |
| CCGCAGCCTTGGGTTCTAACCTGTTGCCT (site CCGTAGCCTAG) | 0.0447 |
| TTCCTGACTTGGGTTCTAACCTGTTGCCT (site CTCCTGCCTAG) | 0.0475 |
| TGTGTCCCTTGGGTTCTAACCTGTTGCCG (site TGTGTCCCTCG) | 1.1 |
| CAATGGTCTTGGGTTCTAACCTGTTGCTT (site CAATGGTCTAA) | 1.86 |
| ATGAGGACTTGGGTTCTAACCTGTTGCCT (site ATGAGGACTAG) | 1.84 |
| TAGGTTCCTTGGGTTCTAACCTGTTGCAT (site TAGGTACCTAT) | 0.795 |
| CCTTGTGCTTGGGTTCTAACCTGTTGCGT (site CCTTGTGCTAC) | 0.158 |
| ACATAGTCTTGGGTTCTAACCTGTTGCAG (site CCTTAGTCTCT) | 0.0322 |
| GACTTGCCTTGGGTTCTAACCTGTTGCCT (site GACTTGGCTAG) | 0.394 |
| AAGCTAACTTGGGTTCTAACCTGTTGCCT (site AAGCTAACTAG) | 1.77 |
| AAGCCAACTTGGGTTCTAACCTGTTGCCT (site AAGCTAACTAG) | 0.172 |
| GCCATCACTTGGGTTCTAACCTGTTGCCT (site GCCATCACTAG) | 0.112 |
| CTATGGACTTGGGTTCTAACCTGTTGCAG (site CTATGGACTGT) | 0.348 |
| GTCAACCCTTGGGTTCTAACCTGTTGCTG (site GTCAACCCTCA) | 2.49 |
| TAGTGGCCTTGGGTTCTAACCTGTTGCCA (site TAGTGGACTTG) | 0.095 |
| TGCGAGTCTTGGGTTCTAACCTGTTGCCT (site TGCGAGTCTAG) | 1.12 |
| CTCCGACCTTGGGTTCTAACCTGTTGCTT (site CTCCGGCCTAA) | 0.327 |
| AACTTTCCTTGGGTTCTAACCTGTTGCAT (site AACTGTCCTAT) | 0.0344 |
| AGTAAGACTTGGGTTCTAACCTGTTGCAT (site AGTAAGACTAA) | 0.197 |

| Sequence | recombinant barcode read abundance (log10) |
| --- | --- |
| GTGGCTTCTTGGGTTCTAACCTGTTGCCT (site GTGGCTTCTAG) | 0.389 |
| GGACGGCCTTGGGTTCTAACCTGTTGCGT (site CTACGGCCTAC) | 0.152 |
| TCCTATGCTTGGGTTCTAACCTGTTGCCG (site GAAAGCTCTAC) | 0.0567 |
| AGCTTACCTTGGGTTCTAACCTGTTGCCT (site TGCTTACCTAG) | 0.0503 |
| AGAGTGACTTGGGTTCTAACCTGTTGCCT (site AGAGTGACTAG) | 1.69 |
| AACTAATCTTGGGTTCTAACCTGTTGCCT (site AACTTATCTAG) | 0.0117 |
| TGGCCCTCTTGGGTTCTAACCTGTTGCTT (site TGGCCCTCTCA) | 0.293 |
| TAAAAGTCTTGGGTTCTAACCTGTTGCCT (site TAAAAGTCTAG) | 0.696 |
| TAGGATACTTGGGTTCTAACCTGTTGCGT (site TAGGAAACTAC) | 0.314 |
| GTAAACTCTTGGGTTCTAACCTGTTGCCT (site GTTAACTCTAG) | 0.427 |
| CTAAGAACTTGGGTTCTAACCTGTTGCAT (site CTAAGAACTAC) | 0.0166 |
| AGGCGCCCTTGGGTTCTAACCTGTTGCAA (site AGGCGCCCTAT) | 0.187 |
| AGATTCACTTGGGTTCTAACCTGTTGCCT (site AGATTGACTTG) | 0.0824 |
| CATGCCTCTTGGGTTCTAACCTGTTGCCG (site GCAAGTCCTAC) | 0.227 |
| CTATGTGCTTGGGTTCTAACCTGTTGCCT (site CTATGTGCTAC) | 0.298 |
| TAGCGGCCTTGGGTTCTAACCTGTTGCCT (site TATCGGCCTAG) | 0.0926 |
| ACAAATACTTGGGTTCTAACCTGTTGCGG (site ACAAATACTCC) | 0.905 |
| GTAACCGCTTGGGTTCTAACCTGTTGCCT (site GTCACCGCTAG) | 0.228 |
| CCATGGACTTGGGTTCTAACCTGTTGCCT (site CCAAGGACTAG) | 0.202 |
| TGATCCACTTGGGTTCTAACCTGTTGCCT (site TGATCCACTAG) | 0.596 |
